Measurements: patent US6172042A, “Synthetic peptides that inhibit IL-6 activity” (Yeda Research and Development Co. LTD, priority 1995, dated 2001)
Where a SMILES comes first, the peptide text is derived from it.

Tested on: B9 plasmacytoma-derived cells
Details: 250 μg/ml
Description: To assay the biological activity of the peptides as inhibitors of IL-6 action against growth of plasmacytoma cells, a hybridoma cell line B9 whose growth is IL-6 dependent (Helle et al, 1988) was used. The B9 cells were cultured in suspension in growth medium RPMI 1640 (Biolabs Ltd., Israel) with 10% heat-inactivated fetal calf serum and 4 U/ml IL-6.
Prior to assay, the B9 cells were washed and incubated for 5 hours in growth medium but without IL-6. The cells were centrifuged, resuspended in growth medium with 2.5 units/ml (i.e. 7.5 IU/ml) of IL-6 and seeded in a 96-well microplate (Nunc, Denmark) at 50,000 cells in a final volume of 0.2 ml per well. A 25 µl of water solution with appropriate peptide concentration was included in the final volume of each well, i.e. the peptides at concentrations ranging from 62.5 μg/ml to 250 μg/ml (as well as a 0 μg/ml control) were added together with the IL-6. […] The optical absorbance at 530 nm wavelength of each well was measured as specified by the manufacturer. The absorbance is directly proportional to the number of living cells in the well as verified in calibration experiments from 50,000 to 10^6 B9 cells (0.25 OD530 corresponding to 5×10^5 B9 cells under the present experimental conditions). The results were expressed as the difference between final cell density with IL-6 and without IL-6. […]

With `CSCC[C@H](NC(=O)[C@H](Cc1c[nH]c2ccccc12)NC(=O)[C@@H](NC(=O)[C@@H](NC(=O)[C@H](Cc1ccccc1)NC(=O)[C@@H](NC(=O)[C@H](CCCCN)NC(=O)[C@H](CO)NC(=O)[C@H](CCCNC(=N)N)NC(=O)[C@H](CCC(=O)O)NC(=O)[C@H](C)NC(=O)[C@H](CCCNC(=N)N)NC(=O)[C@H](Cc1ccc(O)cc1)NC(=O)[C@H](CCCNC(=N)N)NC(=O)[C@@H](N)CC(C)C)[C@@H](C)O)[C@@H](C)O)[C@@H](C)O)C(=O)N[C@H](C(=O)O)C(C)C` [peptide 1063, LRYRAERSKTFTTWMV] (H-LRYRAERSKTFTTWMV-OH) the “growth inhibition of B9 cells” value was 99%.
